# Laboratory results reported in patent US20240165261A1, “MEANS AND METHOD FOR CYTOSOLIC DELIVERY” (Universiteit Gent, priority 2021, published 2024).
# Test system: primary human T cells
# Assay: FD10 delivery in primary human T cells by flow cytometry
# Assay type: cell-based
# Details: human T cells with dex-NG and FD10, ROS scavenger added (FIG. 12a)
# Protocol: FIG. 8. […] Human T cells were isolated from peripheral blood mononuclear cells and expanded for several weeks. […] As a control, cells were treated with nucleofection (program E0-115, Lonza Nucleofector, white bars) (a) Quantitative analysis of FD10 delivery efficiency using flow cytometry. Cells were stained with a membrane exclusion dye (TO-PRO-3 iodide) staining dead cells. TO-PRO-3 iodide negative cells were gated for delivery efficiency analysis. (b) Analysis of cell viability, 4 h after treatment, using an ATP-based viability assay (CellTiter-Glo®). (c-d) Quantitative analysis of FD10 delivery efficiency using flow cytometry on TO-PRO-3 iodide negative cells. The yield is determined as percentage living cells (based on CellTiter-Glo® assay), multiplied by the percentage of FD10-positive cells. Data shown as the mean±SD of three independent experiments (n=3). Statistical significance is reported where relevant (ns p≥0.05, * p<0.05, ** p≤0.01, *** p≤0.001, **** p≤0.0001).
# Human T cells were seeded at 1×10^6 cells per well in a glass bottom 96-well plate (Greiner Bio-One GmbH, Vilvoorde, Belgium). […] Quantitative analysis of delivery efficiency was performed using flow cytometry on living (i.e. TO-PRO-3 negative) cells (CytoFLEX equipped with CytExpert software; Beckman Coulter, Krefeld, Germany). […]
smiles,measurement,value
OCCS [β-mercaptoethanol],beneficial effect on cytosolic FD10 delivery as seen with NAC,could not be replicated
